Here are results for four compounds from patent publication US11668702B2, “Regulation of fungal fruiting body development” (The Chinese University of Hong Kong, priority 2017, dated 2023).

Data set [1] has as its system C. cinerea. As to the kind of experiment: C. cinerea on YMG agar treated with CHIR-99021 HCl (Example 2). Type of data set: cell-based, Coprinopsis cinerea. Here is the method:
Another GSK-3 inhibitor was used to confirm inhibition of LiCl on GSK-3. C. cinerea was cultivated on YMG agar and treated with water for control group and 1 uM, 100 uM and 500 uM of CHIR-99021 HCl for experimental group.

In data set [2] the test system is C. cinerea. Briefly: C. cinerea fruiting body development, solution spread on YMG agar surface before inoculation (Example 5). Type of data set: cell-based, Coprinopsis cinerea. To be noted: 6 days light/dark cycle at 25° C. Here is the method: FIG. 9: Effect on C. cinerea fruiting body development by GSK3 inhibitor-LiCl at different concentration. Water or LiCl solution was spread on the surface of YMG agar, before inoculation. After 6-days all dark incubation in 37° C., the plates were transferred to 25° C. with 12-hours light and 12-hours dark cycle (light/dark cycle) for 5-days incubation. […] Initials and hyphal knots formed on the plates treated with 0.75 g/L and 1.5 g/L LiCl respectively.
FIG. 10: Effect on C. cinerea fruiting body development by GSK3 inhibitor-CHIR-99021 HCl at different concentration. Water or CHIR-99021 HCl solution was spread on the surface of YMG agar, before inoculation. After the mycelium reached the edge of plates, the plates were transferred to 25° C. with light/dark cycle for 6-days incubation.
FIG. 11: Effect on C. cinerea fruiting body development by GSK3 activator-Cisplatin at different concentration. Water or Cisplatin solution was spread on the surface of YMG agar, before inoculation. After the mycelium reached the edge of plates, the plates were transferred to 25° C. with light/dark cycle. […] Young fruiting body developed on the control YMG plates treated with water.
Two GSK3 inhibitors (LiCl and CHIR-99021 HCl) and one GSK3 activator (Cisplatin) were tested in Coprinopsis cinerea, and one GSK3 inhibitor (LiCl) was tested in Pleurotus djamor (commonly known as the pink oyster mushroom). Belonging to the same order Agaricales, these two tested mushroom species are of two different families, Psathyrellaceae and Pleurotaceae, respectively.
Water or LiCl solution was spread on the surface of YMG agar before inoculation of C. cinerea. After 6-days all dark incubation in 37° C., the plates were transferred to 25° C. with 12-hours light and 12-hours dark cycle (light/dark cycle) for 5-days incubation. […] Initials and hyphal knots were formed on the plates treated with 0.75 g/L and 1.5 g/L LiCl respectively.
Water or CHIR-99021 HCl solution was spread on the surface of YMG agar before inoculation of C. cinerea. After the mycelium reached the edge of plates, the plates were transferred to 25° C. with light/dark cycle for 6-days incubation.
Water or Cisplatin solution was spread on the surface of YMG agar before C. cinerea inoculation. After the mycelium reached the edge of plates, the plates were transferred to 25° C. with light/dark cycle. […] Young fruiting body developed on the control YMG plates treated with water.

The conditions of data set [3]: during spa use (PubChem Compound Database); cited from earlier work.
Data set [4] has as its system Pleurotus eryngii. Conditions: cited from earlier work.

SMILES strings stand for the structures.

As for `Cc1cnc(-c2cnc(NCCNc3ccc(C#N)cn3)nc2-c2ccc(Cl)cc2Cl)[nH]1.Cl.Cl.Cl` [CHIR-99021 HCl, 6-[[2-[[4-(2,4-Dichlorophenyl)-5-(5-methyl-1H-imidazol-2-yl)-2-pyrimidinyl]amino]ethyl]amino]-3-pyridinecarbonitrile trihydrochloride], the figures for the Fruiting body development result in data set [1] (1 uM CHIR-99021 HCl), in data set [1] (100 uM CHIR-99021 HCl) and in data set [1] (higher CHIR-99021 HCl concentration (500 uM group)) were “developed initials”, “developed initials” and “inhibited fruiting”, respectively. Moreover, in data set [1] (concentration not given), the Fruiting body formation entry is recorded as “inhibits fruiting body formation”. In addition, the “Fruiting body development stage reached” value in data set [2] (1 μM CHIR-99021 HCl) is on record as “Young fruiting bodies developed”; in data set [2] (100 μM CHIR-99021 HCl), “developed primordium”; in data set [2] (500 μM CHIR-99021 HCl, trihydrochloride) it was “remained arrested in mycelium stage”.
As for `N.N.[Cl][Pt][Cl]` [Cisplatin, cis-diamminedichloridoplatinum(II)], the “Fruiting body development stage reached” value in data set [2] (1 ml saturated Cisplatin) was “had fruiting body and began autolysis”.
For the compound `[Li]` [Lithium], the Skin absorption entry in data set [3] is recorded as “not absorbed through the skin”.
As to `O=C([O-])[O-].[Li+].[Li+]` [lithium carbonate], the “Lithium carbonate concentration at which fruiting body cannot form” value in data set [4] is recorded as “higher than 0.75 mM”.
